Data: article PMC6990646 (ACS Omega, 2020)
≈ marks a conversion by molar mass, not a printed value.

Experiments:
HAV HM175 = assay: Plaque reduction assay against HAV HM175; type: cell-based, hepatitis A virus HM 175; conditions: for mean % of reduction, hepatitis A virus HM 175: nontoxic dose of compound
[1] = test system: ED-43/SG-Feo (VYG) replicon of HCV genotype 4a; assay: Antiviral bioassay against ED-43/SG-Feo; type: cell-based; conditions: nontoxic dose of compound
HAdV7 = assay: Plaque reduction assay against adenovirus 7; type: cell-based, human adenovirus type 7; conditions: nontoxic dose of compound
FRHK-4 cell line = assay: Cytotoxicity test on FRHK-4 cell line; type: cell-based; conditions: hepatitis A virus HM 175 columns; host cells FRHK4
HSV-1 = conditions: for mean % of reduction, herpes simplex virus: nontoxic dose of compound
CBV4 = assay: Plaque reduction assay against coxsackievirus B4; type: cell-based; conditions: nontoxic dose of compound
Vero cell line = assay: Cytotoxicity test on Vero cell line; type: cell-based; conditions: herpes simplex virus table; host cells Vero

Row | Structure (SMILES) | IC50 (HAV HM175; hepatitis A virus HM 175, plaque reduction) [µg/mL] | mean % of reduction, HCVcc genotype 4 [1] [%] | mean % of reduction, adenovirus type 7 (HAdV7) [%] | CC50 (FRHK-4 cell line) [µg/mL] | mean % of reduction, herpes simplex virus (HSV-1) [%] | mean % of reduction, hepatitis A virus HM 175 (HAV HM175) [%] | mean % of reduction, coxsackievirus B4 (CBV4) [%] | CC50 (Vero cell line) [µg/mL] | IC50 (HSV-1; herpes simplex virus, plaque reduction) [µg/mL]
1 | Nc1nc(NS(=O)(=O)c2ccccc2)ncc1-c1nc2ccccc2s1 [5a, N-(4-Amino-5-(Benzo[d]thiazol-2-yl)pyrimidin-2-yl)benzenesulfonamide] | 100 (≈ 261 µM) | 30 ± 0.8 | 20 ± 0.5 | 220 (≈ 574 µM) | 20 ± 0.9 |  |  |  | 
2 | Cc1ccc(S(=O)(=O)Nc2ncc(-c3nc4ccccc4s3)c(N)n2)cc1 [5b, N-(4-Amino-5-(benzo[d]thiazol-2-yl)pyrimidin-2-yl)-4-methylbenzenesulfonamide] |  | 20 ± 0.8 | 20 ± 0.3 |  | 40 ± 1.4 | 40 ± 1.0 |  |  | 
3 | Cc1ccc(C(=O)CNc2nc(NS(=O)(=O)c3ccccc3)ncc2-c2nc3ccccc3s2)cc1 [9c, N-(5-(Benzo[d]thiazol-2-yl)-4-((2-(p-tolyl)-2-oxoethyl)amino)pyrimidin-2-yl)benzenesulfonamide] |  | 10 ± 0.6 | 10 ± 0.2 |  | 30 ± 1.0 | 40 ± 1.2 |  |  | 
4 | Cc1ccc(-c2nc(N)nc(N)c2-c2nc3ccccc3s2)cc1 [13b, 5-(Benzo[d]thiazol-2-yl)-6-p-tolylpyrimidine-2,4-diamine] |  | 10 ± 0.2 | 10 ± 0.1 |  | 10 ± 0.1 | 10 ± 0.1 | 10 ± 0.1 |  | 
5 | COc1ccc(-c2nc(N)nc(N)c2-c2nc3ccccc3s2)cc1 [13c, 5-(Benzo[d]thiazol-2-yl)-6-(4-methoxyphenyl)pyrimidine-2,4-diamine] |  | 10 ± 0.1 | 10 ± 0.2 |  | 10 ± 0.3 | 10 ± 0.1 | 10 ± 0.2 |  | 
6 | Nc1nc(NS(=O)(=O)c2ccccc2)nc(-c2ccccc2)c1-c1nc2ccccc2s1 [14a, N-(4-Amino-5-(benzo[d]thiazol-2-yl)-6-phenylpyrimidin-2-yl)benzenesulfonamide] |  | 10 ± 0.1 | 10 ± 0.2 |  | 10 ± 0.2 | 10 ± 0.1 | 10 ± 0.1 |  | 
7 | Nc1nc(NS(=O)(=O)c2ccccc2)nc(-c2ccc(F)cc2)c1-c1nc2ccccc2s1 [14b, N-(4-Amino-5-(benzo[d]thiazol-2-yl)-6-(4-fluorophenyl)pyrimidin-2-yl)benzenesulfonamide] |  | 10 ± 0.6 | 30 ± 0.5 | 220 (≈ 461 µM) | 70 ± 1.3 |  |  | 250 (≈ 524 µM) | 66 (≈ 138 µM)
8 | Nc1nc(NS(=O)(=O)c2ccccc2)nc(-c2ccc(Cl)cc2)c1-c1nc2ccccc2s1 [14c, N-(4-Amino-5-(benzo[d]thiazol-2-yl)-6-(4-chlorophenyl)pyrimidin-2-yl)benzenesulfonamide] |  | 30 ± 0.7 | 30 ± 0.6 | 230 (≈ 466 µM) | 30 ± 0.8 |  |  |  | 
9 | Cc1ccc(-c2nc(NS(=O)(=O)c3ccccc3)nc(N)c2-c2nc3ccccc3s2)cc1 [14d, N-(4-Amino-5-(benzo[d]thiazol-2-yl)-6-p-tolylpyrimidin-2-yl)benzenesulfonamide] |  | 10 ± 0.1 | 10 ± 0.1 |  | 10 ± 0.1 | 20 ± 0.2 | 30 ± 0.2 |  | 
10 | COc1ccc(-c2nc(NS(=O)(=O)c3ccccc3)nc(N)c2-c2nc3ccccc3s2)cc1 [14e, N-(4-Amino-5-(benzo[d]thiazol-2-yl)-6-(4-methoxyphenyl)pyrimidin-2-yl)benzenesulfonamide] |  | 10 ± 0.3 | 10 ± 0.1 |  | 16.7 ± 0.1 | 13.3 ± 0.2 | 20 ± 0.2 |  | 
11 | Cc1ccc(S(=O)(=O)Nc2nc(N)c(-c3nc4ccccc4s3)c(-c3ccccc3)n2)cc1 [14f, N-(4-Amino-5-(benzo[d]thiazol-2-yl)-6-phenylpyrimidin-2-yl)-4-methylbenzenesulfonamide] |  | 10 ± 0.1 | 10 ± 0.2 |  | 10 ± 0.1 | 10 ± 0.1 | 10 ± 0.2 |  | 
12 | Cc1ccc(-c2nc(NS(=O)(=O)c3ccc(C)cc3)nc(N)c2-c2nc3ccccc3s2)cc1 [14i, N-(4-Amino-5-(benzo[d]thiazol-2-yl)-6-p-tolylpyrimidin-2-yl)-4-methylbenzenesulfonamide] |  | 10 ± 0.2 | 10 ± 0.1 |  | 10 ± 0.1 | 10 ± 0.2 | 10 ± 0.1 |  | 
13 | COc1ccc(-c2nc(NS(=O)(=O)c3ccc(C)cc3)nc(N)c2-c2nc3ccccc3s2)cc1 [14j, N-(4-Amino-5-(benzo[d]thiazol-2-yl)-6-(4-methoxyphenyl)pyrimidin-2-yl)-4-methylbenzenesulfonamide] |  | 10 ± 0.3 | 10 ± 0.1 |  | 10 ± 0.1 | 10 ± 0.1 | 10 ± 0.1 |  | 
14 | CSc1nc(NS(=O)(=O)c2ccccc2)nc(N)c1-c1nc2ccccc2s1 [17a, N-(4-Amino-5-(benzo[d]thiazol-2-yl)-6-(methylthio)pyrimidin-2-yl)benzenesulfonamide] |  | 10 ± 0.1 | 10 ± 0.2 |  | 10 ± 0.3 | 10 ± 0.2 | 10 ± 0.1 |  | 
15 | CSc1nc(NS(=O)(=O)c2ccc(C)cc2)nc(N)c1-c1nc2ccccc2s1 [17b, N-(4-Amino-5-(benzo[d]thiazol-2-yl)-6-(methylthio)pyrimidin-2-yl)-4-methylbenzenesulfonamide] |  | 10 ± 0.1 | 10 ± 0.1 |  | 10 ± 0.2 | 10 ± 0.1 | 20 ± 0.2 |  | 
16 | Nc1nc2c(ncn2COCCO)c(=O)[nH]1 [acyclovir, Acyclovir, reference compound] |  |  |  |  |  |  |  | 28 (≈ 124 µM) | 
17 | CC(=O)CNc1nc(NS(=O)(=O)c2ccccc2)ncc1-c1nc2ccccc2s1 [compound 7, N-(5-(Benzo[d]thiazol-2-yl)-4-((2-oxopropyl)amino)pyrimidin-2-yl)benzenesulfonamide] |  | 10 ± 0.3 | 10 ± 0.2 |  | 10 ± 0.5 | 10 ± 0.2 | 13.3 ± 0.4 |  | 
